Six compounds from patent US10105357B2, “Indication of antibiotic drugs for preparation of cancer inhibition pharmaceutical composition” (LAUNX BIOMEDICAL CO., LTD., priority 2014, dated 2018) can be followed below.

Common to all, as to assay type: cell-based, human
The test system of data set [1] is HepG2 (Hepatocellular Carcinoma). The data set is described as follows: Cell viability analysis, hepatic cancer HepG2. The settings on record: for viability at 10 µM: Homo sapiens.
Data set [2] relates to MCF7 (Mammary Gland, Adenocarcinoma). The data set is described as follows: Cell viability analysis, breast cancer MCF7. The settings on record: for viability at 10 µM: Homo sapiens.
For the next data set, the system named is cancer cell lines. The data set is described as follows: Cell viability analysis (WST-1) on cancer cell lines. The settings on record: drug 10 μM, 72 hours, WST-1; Table 3. A general note: Tetrazolium assays rely on reduction of a dye to a coloured formazan, in cell work by metabolically active cells.
The subject of data set [3] is HI650 (Lung Adenocarcinoma). The data set is described as follows: Cell viability analysis, lung cancer HI650. The settings on record: for viability at 10 µM: Homo sapiens.
Data set [4] deals with AGS (Gastric Adenocarcinoma). The data set is described as follows: Cell viability analysis, gastric cancer AGS. The settings on record: for viability at 10 µM: Homo sapiens.
Data set [5] concerns A375 (Amelanotic Melanoma). The data set is described as follows: Cell viability analysis, skin cancer A375. The settings on record: for viability at 10 µM: Homo sapiens.
In data set [6] the test system is MKN-45 (Gastric Adenocarcinoma). The data set is described as follows: Cell viability analysis, gastric cancer MKN-45. The settings on record: for viability at 10 µM: Homo sapiens.
Data set [7] concerns A549 (Lung Adenocarcinoma). The experiment in a line: Cell viability analysis, lung cancer A549. The settings on record: for viability at 10 µM: Homo sapiens.
Data set [8] concerns LoVo (Colorectal Adenocarcinoma). The experiment in a line: Cell viability analysis, colon cancer LoVo. The settings on record: for viability at 10 µM: Homo sapiens, LoVo.
The subject of data set [9] is HeLa (Cervix Adenocarcinoma). The experiment in a line: Cell viability analysis, cervical cancer HeLa. The settings on record: for viability at 10 µM: Homo sapiens, HeLa.
The subject of data set [10] is PC3 (p53−) (Prostate Adenocarcinoma). The data set is described as follows: Cell viability analysis, prostate cancer PC3. The settings on record: for viability at 10 µM: Homo sapiens.
For data set [11], the system named is HL-60 (Acute Promyelocytic Leukemia). The experiment in a line: Cell viability analysis, leukemia HL-60. The settings on record: for viability at 10 µM: Homo sapiens.
In data set [12] the test system is TSGH-8301 (Urinary Bladder Carcinoma). The experiment in a line: Cell viability analysis, bladder cancer TSGH-8301. The settings on record: for viability at 10 µM: Homo sapiens.
Where [13] appears, read: 72 h, read-out: cell viability (survival rate), LoVo, drug 10 μM, 72 hours, WST-1, OD450 nm.
The mark [14] stands for this setting: HepG2, 72 h, read-out: cell viability (survival rate), HepG2, drug 10 μM, 72 hours, WST-1, OD450 nm.
Where [15] appears, read: MCF7, 72 h, read-out: cell viability (survival rate), MCF7, drug 10 μM, 72 hours, WST-1, OD450 nm.
Where [16] appears, read: NCI-H1650, 72 h, read-out: cell viability (survival rate), H1650, drug 10 μM, 72 hours, WST-1, OD450 nm.
Where [17] appears, read: 72 h, read-out: cell viability (survival rate), AGS, drug 10 μM, 72 hours, WST-1, OD450 nm.
Setting [18] is: A-375, 72 h, read-out: cell viability (survival rate), A375, drug 10 μM, 72 hours, WST-1, OD450 nm.
Where [19] appears, read: MKN-45, 72 h, read-out: cell viability (survival rate), MKN-45, drug 10 μM, 72 hours, WST-1, OD450 nm.
Where [20] appears, read: A549, 72 h, read-out: cell viability (survival rate), A549, drug 10 μM, 72 hours, WST-1, OD450 nm.
The mark [21] stands for this setting: 72 h, read-out: cell viability (survival rate), HeLa, drug 10 μM, 72 hours, WST-1, OD450 nm.
Where [22] appears, read: 72 h, read-out: cell viability (survival rate), PC3, drug 10 μM, 72 hours, WST-1, OD450 nm.
The mark [23] stands for this setting: HL-60, 72 h, read-out: cell viability (survival rate), HL-60, drug 10 μM, 72 hours, WST-1, OD450 nm.
[24] abbreviates: 72 h, read-out: cell viability (survival rate), TSGH, drug 10 μM, 72 hours, WST-1, OD450 nm.

Where a name gives a salt, the structure may show the parent alone. Read-outs that look alike come from different tables or passages of the source.

As usually defined, the viability is a read-out of living cells in per cent, often relative to untreated cells. For the compound `COc1cc(C)c(/C=C/C(C)=C/C=C/C(C)=C/C(=O)O)c(C)c1C` [Acitretin], the viability at 10 µM in [1] (HepG2, 72 h, read-out: cell viability (survival rate), HepG2) came out at 72.6%; in data set [2] (MCF7, 72 h, read-out: cell viability (survival rate), MCF7) it was 119%; in data set [3] (NCI-H1650, 72 h, read-out: cell viability (survival rate), H1650), 43.8%; in data set [4] (72 h, read-out: cell viability (survival rate), AGS), 68.1%; in data set [5] (A-375, 72 h, read-out: cell viability (survival rate), A375), 61.4%; in [6] (MKN-45, 72 h, read-out: cell viability (survival rate), MKN-45) it was 78.5%. Besides, the viability at 10 µM was found to be 69.1% in [7] (A549, 72 h, read-out: cell viability (survival rate), A549); 83.6% in data set [8] (72 h, read-out: cell viability (survival rate), LoVo); 52.7% in data set [9] (72 h, read-out: cell viability (survival rate), HeLa); 92.5% in data set [10] (72 h, read-out: cell viability (survival rate), PC3); 96.7% in [11] (HL-60, 72 h, read-out: cell viability (survival rate), HL-60); 127% in data set [12] (72 h, read-out: cell viability (survival rate), TSGH). Also, the “inhibition effect on different cancer cell lines” value in the data set on cancer cell lines is recorded as “significant inhibition effect”.
Turning to `NCC[C@H](O)C(=O)N[C@@H]1C[C@H](N)[C@@H](O[C@H]2O[C@H](CN)[C@@H](O)[C@H](O)[C@H]2O)[C@H](O)[C@H]1O[C@H]1O[C@H](CO)[C@@H](O)[C@H](N)[C@H]1O` [Amikacin hydrate], the viability at 10 µM turned out to be 88.4% in data set [1] (HepG2, 72 h, drug 10 μM, 72 hours, WST-1, OD450 nm, read-out: cell viability (survival rate), HepG2); 81.4% in data set [2] (MCF7, 72 h, drug 10 μM, 72 hours, WST-1, OD450 nm, read-out: cell viability (survival rate), MCF7); 87.7% in [3] (NCI-H1650, 72 h, drug 10 μM, 72 hours, WST-1, OD450 nm, read-out: cell viability (survival rate), H1650); 85.8% in data set [4] (72 h, drug 10 μM, 72 hours, WST-1, OD450 nm, read-out: cell viability (survival rate), AGS); 87.7% in [5] (A-375, 72 h, drug 10 μM, 72 hours, WST-1, OD450 nm, read-out: cell viability (survival rate), A375); 104% in data set [6] (MKN-45, 72 h, drug 10 μM, 72 hours, WST-1, OD450 nm, read-out: cell viability (survival rate), MKN-45). The viability at 10 µM came out at 111% in [7] (A549, 72 h, drug 10 μM, 72 hours, WST-1, OD450 nm, read-out: cell viability (survival rate), A549); 99% in data set [8] (setting [13]); 96.3% in data set [9] (72 h, drug 10 μM, 72 hours, WST-1, OD450 nm, read-out: cell viability (survival rate), HeLa); 102% in data set [10] (72 h, drug 10 μM, 72 hours, WST-1, OD450 nm, read-out: cell viability (survival rate), PC3); 108% in data set [11] (HL-60, 72 h, drug 10 μM, 72 hours, WST-1, OD450 nm, read-out: cell viability (survival rate), HL-60); 138% in data set [12] (72 h, drug 10 μM, 72 hours, WST-1, OD450 nm, read-out: cell viability (survival rate), TSGH). Besides, the “inhibition effect on different cancer cell lines” value in the data set with cancer cell lines is reported as “significant inhibition effect”.
Turning to `CCC(C)(C)c1ccc(CC(C)CN2C[C@@H](C)O[C@@H](C)C2)cc1` (stereo partly drawn) [Amorolfine Hydrochloride], the viability at 10 µM in data set [1] (setting [14]) turned out to be 91.6%; in [2] (setting [15]), 104%; in [3] (setting [16]), 79.6%; in data set [4] (setting [17]), 94.4%; in data set [5] (setting [18]), 98.6%; in data set [6] (setting [19]), 65.1%. Also, the viability at 10 µM in data set [7] (setting [20]) turned out to be 104%; in data set [8] (setting [13]), 99.7%; in data set [9] (setting [21]), 84.6%; in data set [10] (setting [22]), 104%; in data set [11] (setting [23]), 104%; in data set [12] (setting [24]), 88.5%. The “inhibition effect on different cancer cell lines” value in the data set on cancer cell lines was “significant inhibition effect”.
As to `C[C@@H]1[C@H](O)[C@@H](C)/C=C/C=C/C=C/C=C/C=C/C=C/C=C/[C@H](O[C@@H]2O[C@H](C)[C@@H](O)[C@H](N)[C@@H]2O)C[C@@H]2O[C@](O)(C[C@@H](O)C[C@@H](O)[C@H](O)CC[C@@H](O)C[C@@H](O)CC(=O)O[C@H]1C)C[C@H](O)[C@H]2C(=O)O` [Amphotericin B (Abelcet), Amphotericin B], the viability at 10 µM in data set [1] (setting [14]) was 90.3%; in [2] (setting [15]) it was 38.9%; in [3] (setting [16]), 61.2%; in [4] (setting [17]), 28.5%; in data set [5] (setting [18]), 98.9%; in [6] (setting [19]) it was 44%. In addition, the viability at 10 µM in [7] (setting [20]) worked out at 45%; in [8] (setting [13]), 66.5%; in [9] (setting [21]) it was 84.5%; in data set [10] (setting [22]), 66.9%; in data set [11] (setting [23]) it was 116%; in data set [12] (setting [24]) it was 56%. The “inhibition effect on different cancer cell lines” value in the data set with cancer cell lines is recorded as “significant inhibition effect”.
Regarding `CC1(C)S[C@@H]2[C@H](NC(=O)[C@H](N)c3ccccc3)C(=O)N2[C@H]1C(=O)O` [Ampicillin Trihydrate], the “cell viability (survival rate), HepG2” value in data set [1] (human, 72 h, 10 µM) was found to be 92.4. Further, the “cell viability (survival rate), MCF7” value in data set [2] (human, 72 h, 10 µM) worked out at 36.5. In addition, the “inhibition effect on different cancer cell lines” value in the data set with cancer cell lines is “significant inhibition effect”. For the same compound, in data set [3] (human, 72 h, 10 µM), the “cell viability (survival rate), H1650” value is listed as 63.6. The “cell viability (survival rate), AGS” value in data set [4] (human, 72 h, 10 µM) was 95.3. Besides, the “cell viability (survival rate), A375” value in [5] (human, 72 h, 10 µM) is recorded as 53.7. Moreover, the “cell viability (survival rate), MKN-45” value in data set [6] (human, 72 h, 10 µM) is 56.3. For the same compound, the “cell viability (survival rate), A549” value in [7] (human, 72 h, 10 µM) is listed as 41.9. Moreover, in data set [8] (human, 72 h, 10 µM), the “cell viability (survival rate), LoVo” value is recorded as 78.4. In addition, in data set [9] (human, 72 h, 10 µM), the “cell viability (survival rate), HeLa” value is given as 59.3. In addition, the “cell viability (survival rate), PC3” value in [10] (human, 72 h, 10 µM) worked out at 65.3. Besides, the “cell viability (survival rate), HL-60” value in [11] (human, 72 h, 10 µM) is recorded as 92.7. Also, in data set [12] (human, 72 h, 10 µM), the “cell viability (survival rate), TSGH” value worked out at 61.3.
Take `Cc1cc(=O)n(-c2ccccc2)n1C` [Antipyrine]: the viability at 10 µM in data set [1] (HepG2, drug 10 μM, 72 hours, WST-1, OD450 nm, read-out: cell viability (survival rate), HepG2) stood at 105%; in [2] (MCF7, drug 10 μM, 72 hours, WST-1, OD450 nm, read-out: cell viability (survival rate), MCF7) it was 61.3%; in data set [3] (NCI-H1650, drug 10 μM, 72 hours, WST-1, OD450 nm, read-out: cell viability (survival rate), H1650), 57.3%; in data set [4] (drug 10 μM, 72 hours, WST-1, OD450 nm, read-out: cell viability (survival rate), AGS), 109%; in [5] (A-375, drug 10 μM, 72 hours, WST-1, OD450 nm, read-out: cell viability (survival rate), A375) it was 77.9%; in [6] (MKN-45, drug 10 μM, 72 hours, WST-1, OD450 nm, read-out: cell viability (survival rate), MKN-45) it was 109%. Further, the viability at 10 µM is 76.4% in data set [7] (A549, drug 10 μM, 72 hours, WST-1, OD450 nm, read-out: cell viability (survival rate), A549); 97.1% in [8] (drug 10 μM, 72 hours, WST-1, OD450 nm, read-out: cell viability (survival rate), LoVo); 76.8% in [9] (drug 10 μM, 72 hours, WST-1, OD450 nm, read-out: cell viability (survival rate), HeLa); 76.8% in data set [10] (drug 10 μM, 72 hours, WST-1, OD450 nm, read-out: cell viability (survival rate), PC3); 102% in data set [11] (HL-60, drug 10 μM, 72 hours, WST-1, OD450 nm, read-out: cell viability (survival rate), HL-60); 90.1% in [12] (drug 10 μM, 72 hours, WST-1, OD450 nm, read-out: cell viability (survival rate), TSGH). In addition, in the data set with cancer cell lines, the “inhibition effect on different cancer cell lines” value is listed as “significant inhibition effect”.
